Results published in patent US11028138B2, “Compositions and methods for using actin-based peptides to modulate cellular bioactivity and cellular susceptibility to intracellular pathogens” (priority 2016, dated 2021).

Columns and labels:
[1] = tested on: surface CD4 receptor; test: Surface receptor staining and flow cytometry after peptide stimulation (CD4); format: cell-based, human; conditions: T cells exposed to peptide, 10 uM, 5 to 120 min
Protocol: (§1) FIG. 4: Up-regulation of cell surface receptors by N7. CEM-SS T cells or blood resting CD4 T cells were stimulated with peptide N7 for a time course. Effects on surface CD4, CXCR4 density were measured by anti-CD4 or anti-CXCR4, followed by flow cytometry.
(§2) • 1) Culture human CEM-SS T cells at 5×10^5 cells/ml • 2) Add peptide N7 to the cell to a final concentration of 10 uM at various times from 5 min to 120 min (e. g. 5, 10, 15, 30, 45, 60, 120 min). • 3) Take out 1-2×10^5 cells, put on ice, perform routine surface staining using FITC-, PE- or PE-cy5-labelled specific antibodies against cell receptors as recommended by the reagent manufacturer for cell surface staining. • 4) Analyzed the staining by flow cytometer.

[2] = tested on: HIV; test: HIV DNA synthesis, 2-LTR circles and DNA integration in CEM-SS T cells and blood resting CD4 T cells; format: cell-based; conditions: for HIV DNA synthesis / HIV nuclear migration (2-LTR circles): peptide during 2 h infection; for HIV DNA integration: resting CD4 T cells, no T cell activation
Protocol: FIG. 6: Peptide N7 and N9 enhance HIV DNA synthesis, nuclear migration, and integration. (A) CEM-SS T cells were treated with N7 during HV infection for 2 hours, washed, and then analyzed for viral DNA synthesis and 2-LTR circles, a marker for HIV nuclear migration. (B) Blood resting CD4 T cells were similar infected, washed, and cultured without T cell activation. Viral DNA synthesis and DNA integration were analyzed.
CEM-SS T cells were treated with N7 during HV infection for 2 hours, washed, and then analyzed for viral DNA synthesis and 2-LTR circles, a marker for HIV nuclear migration. Blood resting CD4 T cells were similar infected, washed, and cultured without T cell activation. Viral DNA synthesis and DNA integration were analyzed.

[3] = tested on: cofilin; test: Cofilin phosphorylation by Western Blot in resting memory CD4 T cells; format: cell-based; conditions: time course
Protocol: (§3) FIG. 5: Peptide N7 and N9 modulate cell signal transduction and chemotactic cofilin and actin activity. (A) Resting memory CD4 T cells were treated with N7 for a time course, cofilin phosphorylation was measured by Western Blot. Total cofilin and GAPDH was also measured for loading control. (B) Resting CD4 T cells were treated with N9, and actin polmerization and depolymerization were measured by FITC-phalloidin staining.
(§4) Resting memory CD4 T cells were treated with N7 for a time course, and cofilin phosphorylation was measured by Western Blot. Total cofilin and GAPDH was also measured for loading control (FIG. 5A). Resting CD4 T cells were treated with N9, and actin polmerization and depolymerization were measured by FITC-phalloidin staining (FIG. 5B).

[4] = tested on: surface CXCR4 receptors; test: Surface receptor staining and flow cytometry after peptide stimulation (CXCR4); format: cell-based, human; conditions: T cells exposed to peptide, 10 uM, 5 to 120 min
Protocol: as §1, §2

[5] = tested on: actin; test: Actin polymerization and depolymerization by FITC-phalloidin staining in resting CD4 T cells; format: cell-based
Protocol: as §3, §4

[6] = tested on: HIV-1; conditions: Rev-CEM-GFP; 2 h infection; 2 days post infection; viable (low PI) cells; HIV alone 0.79% (N7 experiment), 1.95% (N9 experiment)
Protocol: (A) The HIV Rev-dependent indicator cell, Rev-CEM-GFP, was not infected (+Cell) or infected with HIV-1 (+HIV), or pre-treated with peptide N7, and then infected with HIV-1 (N7+HIV). Following infection for 2 hours, cells were washed to remove the virus and the peptide. Viral replication was measured at 2 days post infection by flow cytometry. […] PI, propidium iodide, was added before flow cytometry for cytotoxicity control. GFP+ cells were counted only when the cells are viable (low PI staining). (B) Effects of peptide N9 were similarly measured.
The HIV Rev-dependent indicator cell, Rev-CEM-GFP, was not infected (+Cell) or infected with HIV-1 (+HIV), or pre-treated with peptide N7, and then infected with HIV-1 (N7+HIV). Following infection for 2 hours, cells were washed to remove the virus and the peptide. Viral replication was measured at 2 days post infection by flow cytometry.
PI, propidium iodide, was added before flow cytometry for cytotoxicity control. GFP+ cells were counted only when the cells are viable (low PI staining).

[7] = tested on: HIV; test: HIV infection of resting CD4 T cells, viral p24 release; format: cell-based
Protocol: FIG. 7: Peptide N9 promotes HIV infection of resting CD4 T cells. Resting CD4 T cells were treated with N9, and then infected with HIV for 2 hours. Following infection, cells were washed, and culture in the absence of T cell activation and N9. Viral p24 release was measured. As controls, cells were culture with the addition of IL-7 (daily addition), or with a scrambled peptide, or only in the culture medium.
The ability of N9 to stimulate HIV infection of blood resting CD4 T cells was also tested. Resting CD4 T cells are relatively resistant to HIV infection. The lack of activity in the cortical actin limits viral early steps in the infection of resting T cells (Yoder et aI., 2008).

[8] = tested on: HIV-1; conditions: dosages that did not affect CD4 T cell activation or induce cytotoxicity; cited from earlier work
[9] = tested on: Influenza A virus (IAV); conditions: vs solvent-treated control mice; cited from earlier work
[10] = tested on: Influenza A virus (IAV); conditions: A549 cells; read-out: IC50, reduction of viral replication; cited from earlier work
[11] = tested on: Human T lymphoblast cell A3.01; test: N10-mediated cell killing, Propidium iodide and FITC-Annexin V staining, flow cytometry; format: cell-based; conditions: 10 uM; A3.01 cells
Protocol: FIG. 8: Human T lymphoblast cell A3.01 was treated with N10 (10 uM). N10-mediated cell killing was monitored by staining of dead cells with Propidium iodide and FITC-labelled Annexin V. Cells were analyzed by flow cytometry.
N10-mediated cell killing was monitored by staining of dead cells with Propidium iodide and FITC-labelled Annexin V. Cells were analyzed by flow cytometry.
• 5) Culture human A3.01 cells at 5×10^5 cells/ml • 6) Add peptide N10 to the cell to a final concentration of 10 uM • 7) Continue to culture cell at 37° C., maintain cell density below 1×10^6 cells/ml 8) Take out 1-2×10^5 cells, put on ice, add P.I., and FITC—Annexin V as recommended by the reagent manufacturer for dead/apoptotic cell staining. • 9) Analyzed the staining by flow cytometer.

[12] = tested on: HIV-1; conditions: pretreatment; cited from earlier work

## RRRRRRRR(G/A)0-20QIMFETENTPAMYVAIQAVL [Peptide N7]
[1]
  Surface CD4 receptor density: moderate up-regulation
[2]
  HIV DNA synthesis: enhance
  HIV nuclear migration (2-LTR circles): enhance
  HIV DNA integration: enhance
[3]
  Cofilin activation: briefly triggers cofilin activation
[4]
  Surface CXCR4 receptor density: drastically up-regulate
[5]
  Actin polymerization/depolymerization: actin depolymerization
[6]
  HIV infection, percentage of GFP+ cells: 15.5%

## RRRRRRRR(G/A)0-20HTVRIYEGYALRHAILRLDL [Peptide N9]
[7]; early time
  Stimulation of viral infection compared with IL-7 (administered daily): more potent
[7]; single-dosage treatment prior to infection, no T cell activation or cytokine stimulation
  HIV infection of resting T cells (p24 release): drastically stimulated
[2]
  HIV DNA synthesis: enhance
  HIV nuclear migration (2-LTR circles): enhance
  HIV DNA integration: enhance
[5]
  Actin polymerization/depolymerization: modulate
[6]
  HIV infection, percentage of GFP+ cells: 14.07%

## O=C1CSC(c2cccc(Br)c2)N1c1cc(Cl)ccc1O (stereo not shown) [CK-548]
[8]
  HIV-1 replication: dramatically reduced

## CCN(CC)CCCC(C)Nc1nc(C)cc(Nc2ccc3nc(C)cc(N)c3c2)n1 (stereo not shown) [NSC23766]
[9]
  Body weights: increased
  Survivability: higher
  Titer of IAV in lung tissue: reduce titer
[10]
  IC50: 22 µM

## RRRRRRRR(G/A)0-20AGRDLTDYLMKILTERGYSF [Peptide N10]
[11]
  Cell killing: killing of T cells

## C=C1[C@@H](C)[C@H]2[C@H](Cc3ccccc3)NC(=O)[C@]23[C@H](OC(C)=O)/C=C/[C@@](C)(O)C(=O)[C@@H](C)C/C=C/[C@H]3[C@@H]1O [CCD, cytochalasin D]
[12]
  Reduction of nuclear accumulation of late RT products: 25 fold
